Source: patent US12491185B2, “Inhibitors of mPTP” (NRG Therapeutics Ltd, priority 2023, dated 2025)

Tests used:
[1] = system: mPTP; experiment: mPTP activity (Ca2+ retention) assay in isolated rat liver mitochondria; format: biochemical; conditions: examples tested by different contract research organisations, believed comparable
Summary of the method: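 pIC50 was taken from Fluo5N fluorescence at 10 min after a 75 μM CaCl2 bolus, scaled between DMSO (0%) and 5 μM cyclosporin A (100%). Compounds, ten half-log concentrations from 30 μM to 1 nM final, sat 10 min at RT with fresh female Sprague Dawley rat liver mitochondria energized by succinate plus rotenone.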

[2] = system: mPTP; experiment: mPTP activity assay in isolated rat brain mitochondria; format: biochemical; conditions: fluorescence at 10 min timepoint
Summary of the method: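 Fresh brain mitochondria from female Sprague Dawley rats, digitonin-washed, in pH 7.4 mannitol/MOPS/KCl buffer with pyruvate, malate, ADP, oligomycin A and 2 μM Fluo5N. Preincubated with compounds 10 min at RT. Fluo5N fluorescence then read every 3 sec for 10 min on FLIPR Tetra.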

[3] = system: mPTP; experiment: Human platelet mitochondria assay (annexin V / PS exposure by flow cytometry); format: cell-based; conditions: human blood platelets stimulated with thrombin/convulxin/calcium; % AnV-APC positive platelets
Protocol: The mPTP cell based assay was performed using a transformative functional cell-(human blood platelets)-based assay by flow cytometry. Procoagulant platelets expose phosphatidylserine (PS), allowing a burst of thrombin generation that is responsible for producing an occlusive thrombus. While an increase in cytosolic Ca^2+ concentration is required for deriving platelets to become activated, a higher and more sustained increases in cytosolic Ca^2+ concentration is needed to commit some platelets to becoming procoagulant. Simulation of platelets results in the rapid influx of Ca^2+ across the platelet membrane. The Ca^2+ is then sequestered by mitochondria until the threshold for mPTP opening is reached, at which point the pore opens and the mitochondrial membrane potential is dissipated. mPTP opening and subsequent disruption in mitochondrial membrane potential leads to release of a high concentration of calcium stored in mitochondria into the platelet's cytosol (“supramaximal calcium signal” [1]) which is known to be a requisite initiating signal transduction leading to externalisation of procoagulant PS to the outer leaflet of platelets' plasma membrane. PS externalisation of stimulated platelets can be quantified in live platelets using standard annexin V (AnV) labelling by flow cytometry, enabling pharmacological characterisation of mPTP inhibitors.
Fresh human blood (9 ml) was collected from consenting donors into 3.2% sodium citrate. Acid citrate dextrose (85 mM tri-sodium citrate, 71 mM citric acid, and 111 mM D-glucose) was added (1:7 vol/vol) and platelet-rich plasma was separated by centrifugation (200 g, 10 minutes, ambient temperature, and without any brake). Platelets were pelleted by centrifugation (600 g, 10 minutes, ambient temperature) in the presence of prostaglandin E1 (100 nM) and apyrase (0.02 U/mL). Pelleted platelets were resuspended in N-2-hydroxyethylpiperazine-N′-2-ethanesulfonic acid (HEPES)-buffered saline supplemented with D-glucose (135 mM NaCl, 10 mM HEPES, 3 mM KCl, 1 mM MgCl2, 0.34 mM NaH2PO4, 5 mM D-glucose, 0.1% bovine serum albumin, pH 7.4.) and apyrase (0.02 U/mL). Platelets were rested for 30 minutes at 30° C. before treatment protocols were initiated.
Test compounds were prepared from 10 mM stocks in DMSO. Serial dilution of search test compounds stamped in duplicate into a 96 well plate using Multidrop Pico 8 Digital Dispenser. Platelets were loaded and incubated for 30 min at room temperature. Then a stimulation mix containing Thrombin (FAC: 0.5 U/ml)/Convulxin (FAC: 0.05 μg/ml)/Calcium (FAC: 2 mM) added per well except control/not stimulated wells (This is low signal control). Some wells received no treatment but DMSO vehicle control and used as high signal controls (FAC of DMSO set at 0.1% in all wells of the 96 well plate). The reaction mix incubated for 10 min at room temperature. During last 2 min of stimulation AnV-APC was added to detect surface PS exposure. Samples ten fixed and fluorescence was detected by MACSQuant X flow cytometry and 10 000 platelet events were collected. The percentage of AnV-APC positive platelets was calculated for each well. IC50 for each compound was then calculated using a standard four parameter curve fit model (GraphPad Prism).

| SMILES | mPTP Rat liver pIC50 [1] | mPTP Rat brain pIC50 [2] | pIC50 [3] |
| --- | --- | --- | --- |
| CC(CNC(=O)c1nccc(=O)[nH]1)(Cc1ccc(F)cc1F)C1CC1 (single isomer, unassigned) [Example 244, N-(2-cyclopropyl-3-(2,4-difluorophenyl)-2-methylpropyl)-6-oxo-1,6-dihydropyrimidine-2-carboxamide] | 6.73 | 7.53 | 7.14 |
| CC(CNC(=O)c1nccc(=O)[nH]1)(Cc1ccc(F)cc1F)C1CC1 (single isomer, unassigned) [Example 243, N-(2-cyclopropyl-3-(2,4-difluorophenyl)-2-methylpropyl)-6-oxo-1,6-dihydropyrimidine-2-carboxamide] | 6.91 | 7.93 | 7.36 |
| O=C(NC[C@@H](Cc1ccc(F)cc1)C1CC1)c1nccc(=O)[nH]1 [Example 249] | – | – | 6.52 |
| Cn1nc(C(=O)NC[C@H](Cc2ccc(F)cc2F)C2CC2)[nH]c1=O [Example 96, (R)—N-(2-Cyclopropyl-3-(2,4-difluorophenyl)propyl)-1-methyl-5-oxo-4,5-dihydro-1H-1,2,4-triazole-3-carboxamide] | 6.76 | 7.91 | 7.43 |
| CC(c1ccccc1)C1(CNC(=O)c2nn(C)c(=O)[nH]2)CCC1 (single isomer, unassigned) [Example 26, 1-methyl-5-oxo-N-((1-(1-phenylethyl)cyclobutyl)methyl)-4,5-dihydro-1H-1,2,4-triazole-3-carboxamide] | 6.87 | 7.60 | 6.77 |
| Cc1ccc(F)c(CC2(CNC(=O)c3nn(C)c(=O)[nH]3)CCC2)c1 [Example 83, N-((1-(2-Fluoro-5-methylbenzyl)cyclobutyl)methyl)-1-methyl-5-oxo-4,5-dihydro-1H-1,2,4-triazole-3-carboxamide] | 6.04 | 7.27 | – |
| Cn1nc(C(=O)NCC2(Cc3cccc(F)c3F)CCC2)[nH]c1=O [Example 95, N-((1-(2,3-Difluorobenzyl)cyclobutyl)methyl)-1-methyl-5-oxo-4,5-dihydro-1H-1,2,4-triazole-3-carboxamide] | 6.16 | 7.39 | – |
| Cn1nc(C(=O)NCC2(Cc3ccc(F)cc3F)CC23CC3)[nH]c1=O (single isomer, unassigned) [Example 231, N-((1-(2,4-difluorobenzyl)spiro[2.2]pentan-1-yl)methyl)-1-methyl-5-oxo-4,5-dihydro-1H-1,2,4-triazole-3-carboxamide] | 6.61 | 7.37 | – |
| CCn1nc(C(=O)NCC2(Cc3ccccc3)CCC2)[nH]c1=O [Example 14, N-((1-benzylcyclobutyl)methyl)-1-ethyl-5-oxo-4,5-dihydro-1H-1,2,4-triazole-3-carboxamide] | 5.63 | 6.94 | – |
| O=C(NC[C@H](Cc1ccc(F)cc1F)C1CC1)c1nncc(=O)[nH]1 [Example 195, (R)-N-(2-cyclopropyl-3-(2,4-difluorophenyl)propyl)-5-oxo-4,5-dihydro-1,2,4-triazine-3-carboxamide] | 6.37 | 7.43 | – |
| CC(NC(=O)c1nn(C)c(=O)[nH]1)C1(Cc2ccccc2)CCC1 (stereo not drawn) [Example 23, N-(1-(1-benzylcyclobutyl)ethyl)-1-methyl-5-oxo-4,5-dihydro-1H-1,2,4-triazole-3 carboxamide] | 6.64 | 7.37 | – |
| O=C(NCC1(Cc2ccccc2)CC(F)(F)C1)c1cncc(=O)[nH]1 [Example 48, N-((1-benzyl-3,3-difluorocyclobutyl)methyl)-6-oxo-1,6-dihydropyrazine-2-carboxamide] | 4.56 | 5.99 | – |
| Cc1cnc(C(=O)NCC(C)(Cc2ccc(F)cc2F)C2CC2)[nH]c1=O (stereo not drawn) [compound 266] | 5.95 | 7.04 | – |
| O=C(NCC1(Cc2ccc(F)cc2)CCC1)c1cncc(O)n1 [Example 50, N-((1-(4-fluorobenzyl)cyclobutyl)methyl)-6-hydroxypyrazine-2-carboxamide] | 4.66 | 7.23 | – |
| O=C(NCC1(Cc2ccccc2)CCCCC1)c1cncc(=O)[nH]1 [Example 47, N-((1-benzylcyclohexyl)methyl)-6-oxo-1,6-dihydropyrazine-2-carboxamide] | 4.71 | 6.91 | – |
| Cn1nc(C(=O)NCC(Cc2ccccc2)C2CCC2)[nH]c1=O (stereo not drawn) [Example 51, N-(2-cyclobutyl-3-phenylpropyl)-1-methyl-5-oxo-4,5-dihydro-1H-1,2,4-triazole-3-carboxamide] | 5.62 | 6.84 | – |
| Cn1nc(C(=O)NCC2(Cc3ccccc3)CCC2)[nH]c1=O [Example 10, N-((1-benzylcyclobutyl)methyl)-1-methyl-5-oxo-4,5-dihydro-1H-1,2,4-triazole-3-carboxamide] | 6.58 | 7.42 | – |
| Cn1nc(C(=O)NCC2(Cc3cccc(F)c3)CCC2)[nH]c1=O [Example 84, N-((1-(3-Fluorobenzyl)cyclobutyl)methyl)-1-methyl-5-oxo-4,5-dihydro-1H-1,2,4-triazole-3-carboxamide] | 6.72 | 7.72 | – |
| O=C(NCC1(Cc2cc(F)ccc2F)CCC1)c1nccc(=O)[nH]1 [Example 146] | 6.85 | 7.62 | – |
| CSc1ccccc1CC1(CNC(=O)c2nn(C)c(=O)[nH]2)CCC1 [Example 181] | 5.66 | 6.91 | – |
| O=C(NCC1(Cc2ccc(F)cc2F)CCC1)c1nccc(=O)[nH]1 [Example 160] | 6.28 | 7.7 | – |
| O=C(NCC1(Cc2ccc(F)cc2F)CC(F)C1)c1nccc(=O)[nH]1 (single isomer, unassigned) [Example 248] | 6.16 | 7.05 | – |
| CC(CNC(=O)c1cc(O)no1)(Cc1ccc(F)cc1)C1CC1 (single isomer, unassigned) [Example 272] | 4.52 | 6.35 | – |
| Cn1nc(C(=O)NCC2(Cc3ccc(F)cc3F)CC23CC3)[nH]c1=O (single isomer, unassigned) [Example 232, N-((1-(2,4-difluorobenzyl)spiro[2.2]pentan-1-yl)methyl)-1-methyl-5-oxo-4,5-dihydro-1H-1,2,4-triazole-3-carboxamide] | 6.65 | 7.56 | – |
| CC(CNC(=O)c1noc(=O)[nH]1)(Cc1ccc(F)cc1)C1CC1 (single isomer, unassigned) [Example 276, N-(2-cyclopropyl-3-(4-fluorophenyl)-2-methylpropyl)-5-oxo-4,5-dihydro-1,2,4-oxadiazole-3-carboxamide] | 5.82 | 7.27 | – |
| CC(CNC(=O)c1ncc(F)c(=O)[nH]1)(Cc1ccc(F)cc1F)C1CC1 (single isomer, unassigned) [Example 257, N-[2-cyclopropyl-3-(2,4-difluorophenyl)-2-methylpropyl]-5-fluoro-4-oxo-3H-pyrimidine-2-carboxamide] | 6.82 | 8.37 | – |
| Cn1nc(C(=O)NCC2(Cc3ccccc3Br)CCC2)[nH]c1=O [Example 37, N-((1-(2-bromobenzyl)cyclobutyl)methyl)-1-methyl-5-oxo-4,5-dihydro-1H-1,2,4-triazole-3-carboxamide] | 5.79 | 7.61 | – |
